How the values were obtained:
Format in all cases: cell-based
[1] = test system: STAT1; assay: IFN-γ-induced STAT1 pathway activation assay; conditions: read-out: STAT1 IC50
[2] = test system: STAT3; assay: IL-6-induced STAT3 activation high content; conditions: for IC50: Homo sapiens, CAL-33, read-out: STAT3 IC50; for fold improvement in STAT3 potency compared to original hit 2b: vs 2b; for times less active (STAT3) after exchanging R-substituents of 1a and 2b: compared with 1a and 2b
[3] = test system: pSTAT3 and STAT3 target gene Cyclin D1; assay: Western blot analysis in IL-6-stimulated Cal33 cells; conditions: IL-6 (50 ng/mL)-stimulated Cal33 cells

SMILES	IC50 [1] [µM]	IC50 [2] [µM]	also measured
COc1ccc(C2=Nn3c(nnc3-c3[nH]nc4c3CCC4)SC2)cc1 [Compound 6a]	40.6 ± 7.5	–	–
Fc1ccc(-c2cc(-c3nnc4n3N=C(c3ccc(Cl)c(Cl)c3)CS4)[nH]n2)cc1 [Compound 14]	–	–	fold improvement in STAT3 potency over unsubstituted analog 1b ([2]; vs 1b): ~ 4 fold
C1=Nn2c(nnc2-c2cc(-c3ccccc3)n[nH]2)SC1 [Compound 9b]	> 50	–	–
Clc1ccc(C2=Nn3c(nnc3-c3[nH]nc4c3CCCC4)SC2)cc1Cl [Compound 16]	–	–	fold less active than cyclopentyl analog 1a ([2]; vs 1a): ~ 2 fold
c1ccc(C2=Nn3c(nnc3-c3cc(-c4ccccc4)[nH]n3)SC2)cc1 [Compound 5b]	> 50	–	–
Clc1ccc(C2=Nn3c(nnc3-c3[nH]nc4c3CCC4)SC2)s1 [Compound 8a]	> 50	–	–
CC1Sc2nnc(-c3cc(-c4ccc(F)cc4)n[nH]3)n2N=C1c1ccccc1 (stereo not drawn) [Compound 20]	> 30	3.8 ± 0.8	fold improvement in STAT3 potency compared to original hit 2b [2]: 2–3 fold
Clc1ccc(C2=Nn3c(nnc3-c3cc(-c4ccccc4)[nH]n3)SC2)cc1 [Compound 2b]	> 50	9.6 ± 7.8	–
c1cc(C2=Nn3c(nnc3-c3[nH]nc4c3CCC4)SC2)ccn1 [Compound 7a]	> 50	–	–
Clc1cccc(C2=Nn3c(nnc3-c3cc(-c4ccccc4)n[nH]3)SC2)c1 [Compound 4b]	45.9 ± 8.3	5.6 ± 4	–
CC1Sc2nnc(-c3[nH]nc4c3CCC4)n2N=C1c1ccc(Cl)c(Cl)c1 (stereo not drawn) [Compound 17]	> 50	8.2 ± 2.2	–
CC(C)C1Sc2nnc(-c3[nH]nc4c3CCC4)n2N=C1c1ccc(Cl)c(Cl)c1 (stereo not drawn) [Compound 23]	> 50	4.4	–
COc1ccc(C2CSc3nnc(-c4[nH]nc5c4CCC5)n3N2)cc1 (stereo not drawn) [Compound 12]	–	–	activity in the STAT3 assay (in words) [2]: inactive
CC(C)CC1Sc2nnc(-c3[nH]nc4c3CCC4)n2N=C1c1ccc(Cl)c(Cl)c1 (stereo not drawn) [Compound 25]	> 50	4.1	–
COc1ccc(C2=Nn3c(nnc3-c3cc(-c4ccc(Cl)cc4)n[nH]3)SC2C)cc1 (stereo not drawn) [Compound 22]	–	–	downstream STAT3 target gene Cyclin D1 by Western blot [3]: significant inhibition; pSTAT3 levels by Western blot [3]: pronounced decreases
COc1ccc(C2=Nn3c(nnc3-c3[nH]nc4c3CCC4)SC2C(C)C)cc1 (stereo not drawn) [Compound 24]	> 50	–	–
COc1ccc(C2CSc3nnc(-c4cc(-c5ccccc5)n[nH]4)n3N2C(C)=O)cc1 (stereo not drawn) [Compound 13]	–	–	activity in the STAT3 assay (in words) [2]: inactive
Clc1ccc(C2=Nn3c(nnc3-c3cc(-c4ccccc4)n[nH]3)SC2)cc1Cl [Compound 1b]	> 50	–	times less active (STAT3) after exchanging R-substituents of 1a and 2b [2]: 3–4 times

SMILES	IC50 [1] [µM]	IC50 [2] [µM]	also measured
c1ccc(C2=Nn3c(nnc3-c3[nH]nc4c3CCC4)SC2)cc1 [Compound 5a]	> 50	21.2 ± 23.5	–
Clc1ccc(C2=Nn3c(nnc3-c3[nH]nc4c3CCC4)SC2)cc1 [Compound 2a]	> 50	–	times less active (STAT3) after exchanging R-substituents of 1a and 2b [2]: 3–4 times
COc1ccc(C2=Nn3c(nnc3-c3cc(-c4ccccc4)n[nH]3)SC2CC(C)C)cc1 (stereo not drawn) [Compound 26]	> 50	–	–
CC1Sc2nnc(-c3cc(-c4ccccc4)n[nH]3)n2N=C1c1ccccc1 (stereo not drawn) [Compound 19]	15	3.4	downstream STAT3 target gene Cyclin D1 by Western blot [3]: significant inhibition; pSTAT3 levels by Western blot [3]: pronounced decreases; fold improvement in STAT3 potency compared to original hit 2b [2]: 2–3 fold
CC1(C)Sc2nnc(-c3[nH]nc4c3CCC4)n2N=C1c1ccc(Cl)c(Cl)c1 [Compound 30]	> 50	18.6	–
COc1ccc(C2=Nn3c(nnc3-c3cc(-c4ccc(F)cc4)n[nH]3)SC2C)cc1 (stereo not drawn) [Compound 21]	> 30	4.2	fold improvement in STAT3 potency compared to original hit 2b [2]: 2–3 fold
Clc1ccc(C2=Nn3c(nnc3-c3cc(-c4ccccc4)n[nH]3)SC2)s1 [Compound 8b]	> 50	–	–
c1ccc(-c2cc(-c3nnc4n3N=C(C3CCCCC3)CS4)[nH]n2)cc1 [Compound 11b]	> 50	–	–
COc1ccc(C2=Nn3c(nnc3-c3cc(-c4ccccc4)n[nH]3)SC2)cc1 [Compound 6b]	> 50	–	–
CC1=Nn2c(nnc2-c2cc(-c3ccccc3)[nH]n2)SC1 [Compound 10b]	> 50	–	–
COc1ccc(C2=Nn3c(nnc3-c3[nH]nc4c3CCC4)SC2C)cc1 (stereo not drawn) [Compound 18]	> 50	9.1	–
c1ccc(-c2cc(-c3nnc4n3N=C(c3ccncc3)CS4)[nH]n2)cc1 [Compound 7b]	> 50	–	–
Clc1cccc(C2=Nn3c(nnc3-c3[nH]nc4c3CCC4)SC2)c1 [Compound 4a]	> 50	–	–
Clc1ccc(C2=Nn3c(nnc3-c3[nH]nc4c3CCC4)SC2Cc2ccccc2)cc1Cl (stereo not drawn) [Compound 27]	> 50	7.5	–
CC1=Nn2c(nnc2-c2[nH]nc3c2CCC3)SC1 [Compound 10a]	> 50	–	–
Clc1ccc(C2=Nn3c(nnc3-c3[nH]nc4c3CCC4)SC2)cc1Cl [Compound 1a]	> 50	6.8 ± 3.7	–
C1=Nn2c(nnc2-c2[nH]nc3c2CCC3)SC1 [Compound 9a]	> 50	–	–
C1CCC(C2=Nn3c(nnc3-c3[nH]nc4c3CCC4)SC2)CC1 [Compound 11a]	> 50	–	–

Source: PMC4964800 (Bioorganic & medicinal chemistry letters, 2016)
